Values after ≈ are worked out from the molar mass of the structure shown. Read-outs that look alike come from different tables or passages of the source.
Experiments:
Assay in all cases: MIC, microdilution broth method (NCCLS)
Assay type in all cases: cell-based
E. coli OC2605 = details: Escherichia coli
Outline: (§1)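 NCCLS M7-A4 broth microdilution: two-fold drug dilutions in cation-adjusted Mueller-Hinton broth, inoculum approximately 5×10^4 CFU/well. Trays incubated at 35 °C for 16-20 hours. MIC read by comparing growth to compound-free growth controls.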

S. aureus ATCC29213 = details: Staphylococcus aureus, read-out: MIC Values, B: S. aureus ATCC29213
Outline: as §1

S. pneumoniae ATCC49619 = details: Streptococcus pneumoniae, read-out: MIC Values, D: S. pneumoniae ATCC49619
Outline: as §1

E. faecalis ATCC29212 = details: Enterococcus faecalis, read-out: MIC Values, C: E. faecalis ATCC29212
Outline: as §1

H. influenzae ATCC49247 = details: Haemophilus influenzae, read-out: MIC Values, E: H. influenzae ATCC49247
Outline: as §1

[1] = Table 1, 6-Carbamoyl-3-Acyl Macrolide Derivatives, read-out: MIC Values, A: E. coli OC2605
[2] = Table 1, 6-Carbamoyl-3-Acyl Macrolide Derivatives
[3] = Table 2, 3,6-Dicarbamoyl Macrolide Derivatives, read-out: MIC Values, A: E. coil OC2605
[4] = Table 2, 3,6-Dicarbamoyl Macrolide Derivatives

Row | MIC (E. coli OC2605; [1]) [µg/mL] | MIC (S. aureus ATCC29213; [2]) [µg/mL] | MIC (S. pneumoniae ATCC49619; [2]) [µg/mL] | MIC (E. faecalis ATCC29212; [2]) [µg/mL] | MIC (H. influenzae ATCC49247; [2]) [µg/mL] | MIC (E. coli OC2605; [3]) [µg/mL] | MIC (S. aureus ATCC29213; [4]) [µg/mL] | MIC (S. pneumoniae ATCC49619; [4]) [µg/mL] | MIC (E. faecalis ATCC29212; [4]) [µg/mL] | MIC (H. influenzae ATCC49247; [4]) [µg/mL] | Compound
1 | – | – | – | – | – | > 16 | 2 (≈ 1.95 µM) | 0.5 (≈ 0.487 µM) | 2 (≈ 1.95 µM) | 16 (≈ 15.6 µM) | CC[C@H]1OC(=O)[C@H](C)[C@@H](OC(=O)Nc2ccc(Cl)c(Cl)c2)[C@H](C)[C@@H](O[C@@H]2O[C@H](C)C[C@H](N(C)C)[C@H]2O)[C@](C)(OC(=O)NC/C=C/c2ccc(-c3ncccn3)cc2)C[C@@H](C)C(=O)[C@H](C)[C@H]2NC(=O)O[C@@]21C [Compound 54]
2 | > 16 | 1 (≈ 1.14 µM) | 0.12 (≈ 0.136 µM) | 0.5 (≈ 0.568 µM) | 2 (≈ 2.27 µM) | – | – | – | – | – | CC[C@H]1OC(=O)[C@H](C)[C@@H](OC(=O)Cc2cccnc2)[C@H](C)[C@@H](O[C@@H]2O[C@H](C)C[C@H](N(C)C)[C@H]2O)[C@](C)(OC(=O)NC/C=C/c2cncnc2)C[C@@H](C)C(=O)[C@H](C)[C@H]2NC(=O)O[C@@]21C [Compound 40]
3 | – | – | – | – | – | > 16 | 1 (≈ 1.04 µM) | 0.12 (≈ 0.125 µM) | 0.5 (≈ 0.519 µM) | 2 (≈ 2.08 µM) | CC[C@H]1OC(=O)[C@H](C)[C@@H](OC(=O)NC2CCCCC2)[C@H](C)[C@@H](O[C@@H]2O[C@H](C)C[C@H](N(C)C)[C@H]2O)[C@](C)(OC(=O)NC/C=C/c2ccc(-c3ncccn3)cc2)C[C@@H](C)C(=O)[C@H](C)[C@H]2NC(=O)O[C@@]21C [Compound 51]
4 | 16 (≈ 17.9 µM) | 0.25 (≈ 0.28 µM) | 0.06 (≈ 0.0671 µM) | 0.25 (≈ 0.28 µM) | 4 (≈ 4.47 µM) | – | – | – | – | – | CCC(=O)O[C@H]1[C@H](C)[C@@H](O[C@@H]2O[C@H](C)C[C@H](N(C)C)[C@H]2O)[C@](C)(OC(=O)NC/C=C/c2ccc(-c3ncccn3)cc2)C[C@@H](C)C(=O)[C@H](C)[C@H]2NC(=O)O[C@]2(C)[C@@H](CC)OC(=O)[C@@H]1C [Compound 14]
5 | > 16 | 0.5 (≈ 0.53 µM) | 0.06 (≈ 0.0636 µM) | 0.5 (≈ 0.53 µM) | 8 (≈ 8.47 µM) | – | – | – | – | – | CC[C@H]1OC(=O)[C@H](C)[C@@H](OC(=O)c2cnccn2)[C@H](C)[C@@H](O[C@@H]2O[C@H](C)C[C@H](N(C)C)[C@H]2O)[C@](C)(OC(=O)NC/C=C/c2ccc(-c3ncccn3)cc2)C[C@@H](C)C(=O)[C@H](C)[C@H]2NC(=O)O[C@@]21C [Compound 5]
6 | > 16 | 0.5 (≈ 0.543 µM) | 0.06 (≈ 0.0652 µM) | 0.5 (≈ 0.543 µM) | 8 (≈ 8.69 µM) | – | – | – | – | – | CC[C@H]1OC(=O)[C@H](C)[C@@H](OC(=O)CC2CC2)[C@H](C)[C@@H](O[C@@H]2O[C@H](C)C[C@H](N(C)C)[C@H]2O)[C@](C)(OC(=O)NC/C=C/c2ccc(-c3ncccn3)cc2)C[C@@H](C)C(=O)[C@H](C)[C@H]2NC(=O)O[C@@]21C [Compound 13]
7 | > 16 | 2 (≈ 1.98 µM) | 0.25 (≈ 0.248 µM) | 2 (≈ 1.98 µM) | 8 (≈ 7.93 µM) | – | – | – | – | – | CC[C@H]1OC(=O)[C@H](C)[C@@H](OC(=O)Cc2cn(C)c3ccccc23)[C@H](C)[C@@H](O[C@@H]2O[C@H](C)C[C@H](N(C)C)[C@H]2O)[C@](C)(OC(=O)NC/C=C/c2ccc(-c3ncccn3)cc2)C[C@@H](C)C(=O)[C@H](C)[C@H]2NC(=O)O[C@@]21C [Compound 11]
8 | > 16 | 2 (≈ 2.06 µM) | 0.12 (≈ 0.124 µM) | 1 (≈ 1.03 µM) | > 16 | – | – | – | – | – | CC[C@H]1OC(=O)[C@H](C)[C@@H](OC(=O)/C=C/c2cccnc2)[C@H](C)[C@@H](O[C@@H]2O[C@H](C)C[C@H](N(C)C)[C@H]2O)[C@](C)(OC(=O)NC/C=C/c2ccc(-c3ncccn3)cc2)C[C@@H](C)C(=O)[C@H](C)[C@H]2NC(=O)O[C@@]21C [Compound 6]

The remaining lines, values behind:

Row | Compound | MIC (E. coli OC2605; [1]) [µg/mL] | MIC (S. aureus ATCC29213; [2]) [µg/mL] | MIC (S. pneumoniae ATCC49619; [2]) [µg/mL] | MIC (E. faecalis ATCC29212; [2]) [µg/mL] | MIC (H. influenzae ATCC49247; [2]) [µg/mL] | MIC (E. coli OC2605; [3]) [µg/mL] | MIC (S. aureus ATCC29213; [4]) [µg/mL] | MIC (S. pneumoniae ATCC49619; [4]) [µg/mL] | MIC (E. faecalis ATCC29212; [4]) [µg/mL] | MIC (H. influenzae ATCC49247; [4]) [µg/mL]
9 | CC[C@H]1OC(=O)[C@H](C)[C@@H](OC(=O)Cc2ccccn2)[C@H](C)[C@@H](O[C@@H]2O[C@H](C)C[C@H](N(C)C)[C@H]2O)[C@](C)(OC(=O)NC/C=C/C=C/c2cccnc2)C[C@@H](C)C(=O)[C@H](C)[C@H]2NC(=O)O[C@@]21C [Compound 25, 2-Pyridineacetic acid, (3aS,4R,7R,8S,9S,10R, 11R,13R,15R,15aR)-4-ethyltetradecahydro-3a,7,9,11,13,15-hexamethyl-2,6,14-trioxo-11-[[[[(2E,4E)-5-(3-pyridinyl)-2,4-pentadienyl]amino]carbonyl]oxy]-10-[[3,4,6-trideoxy-3-(dimethylamino)-β-D-xylo-hexopyranosyl]oxy]-2H-oxacyclotetradecino[4,3-d]oxazol-8-yl ester] | 8 (≈ 8.83 µM) | 0.5 (≈ 0.552 µM) | 0.03 (≈ 0.0331 µM) | 0.25 (≈ 0.276 µM) | 2 (≈ 2.21 µM) | – | – | – | – | –
10 | CC[C@H]1OC(=O)[C@H](C)[C@@H](OC(=O)C(C)C)[C@H](C)[C@@H](O[C@@H]2O[C@H](C)C[C@H](N(C)C)[C@H]2O)[C@](C)(OC(=O)NC/C=C/c2cccnc2)C[C@@H](C)C(=O)[C@H](C)[C@H]2NC(=O)O[C@@]21C [Compound 17] | 16 (≈ 19.3 µM) | 0.5 (≈ 0.602 µM) | 0.06 (≈ 0.0722 µM) | 0.25 (≈ 0.301 µM) | 1 (≈ 1.2 µM) | – | – | – | – | –
11 | CC[C@H]1OC(=O)[C@H](C)[C@@H](OC(=O)C(C)C)[C@H](C)[C@@H](O[C@@H]2O[C@H](C)C[C@H](N(C)C)[C@H]2O)[C@](C)(OC(=O)NC/C=C/C=C/c2ccccn2)C[C@@H](C)C(=O)[C@H](C)[C@H]2NC(=O)O[C@@]21C [Compound 26] | 16 (≈ 18.7 µM) | 1 (≈ 1.17 µM) | 0.06 (≈ 0.07 µM) | 0.25 (≈ 0.292 µM) | 2 (≈ 2.33 µM) | – | – | – | – | –
12 | CC[C@H]1OC(=O)[C@H](C)[C@@H](OC(=O)N(CC)CC)[C@H](C)[C@@H](O[C@@H]2O[C@H](C)C[C@H](N(C)C)[C@H]2O)[C@](C)(OC(=O)NC/C=C/c2cnc3ccccc3c2)C[C@@H](C)C(=O)[C@H](C)[C@H]2NC(=O)O[C@@]21C [Compound 59] | – | – | – | – | – | 16 (≈ 17.6 µM) | 0.5 (≈ 0.549 µM) | 0.06 (≈ 0.0659 µM) | 0.25 (≈ 0.275 µM) | 4 (≈ 4.4 µM)
13 | CC[C@H]1OC(=O)[C@H](C)[C@@H](OC(=O)Cc2cccnc2)[C@H](C)[C@@H](O[C@@H]2O[C@H](C)C[C@H](N(C)C)[C@H]2O)[C@](C)(OC(=O)NC/C=C/C=C/c2cccnc2)C[C@@H](C)C(=O)[C@H](C)[C@H]2NC(=O)O[C@@]21C [Compound 23] | 16 (≈ 17.7 µM) | 1 (≈ 1.1 µM) | 0.03 (≈ 0.0331 µM) | 0.25 (≈ 0.276 µM) | 4 (≈ 4.41 µM) | – | – | – | – | –
14 | CC[C@H]1OC(=O)[C@H](C)[C@@H](OC(=O)N(CC)CCO)[C@H](C)[C@@H](O[C@@H]2O[C@H](C)C[C@H](N(C)C)[C@H]2O)[C@](C)(OC(=O)NC/C=C/c2ccc(-c3ncccn3)cc2)C[C@@H](C)C(=O)[C@H](C)[C@H]2NC(=O)O[C@@]21C [Compound 66] | – | – | – | – | – | > 16 | 4 (≈ 4.2 µM) | 0.25 (≈ 0.262 µM) | 2 (≈ 2.1 µM) | 16 (≈ 16.8 µM)
15 | CC[C@H]1OC(=O)[C@H](C)[C@@H](OC(=O)c2ccccc2)[C@H](C)[C@@H](O[C@@H]2O[C@H](C)C[C@H](N(C)C)[C@H]2O)[C@](C)(OC(=O)NC/C=C/c2cccnc2)C[C@@H](C)C(=O)[C@H](C)[C@H]2NC(=O)O[C@@]21C [Compound 18] | > 16 | 4 (≈ 4.62 µM) | 0.12 (≈ 0.139 µM) | 0.5 (≈ 0.578 µM) | 8 (≈ 9.25 µM) | – | – | – | – | –
16 | CC[C@H]1OC(=O)[C@H](C)[C@@H](OC(=O)c2ccc([N+](=O)[O-])cc2)[C@H](C)[C@@H](O[C@@H]2O[C@H](C)C[C@H](N(C)C)[C@H]2O)[C@](C)(OC(=O)NC/C=C/c2ccc(-c3ncccn3)cc2)C[C@@H](C)C(=O)[C@H](C)[C@H]2NC(=O)O[C@@]21C [Compound 10] | > 16 | 2 (≈ 2.03 µM) | 0.12 (≈ 0.122 µM) | 1 (≈ 1.01 µM) | 8 (≈ 8.1 µM) | – | – | – | – | –
17 | CC[C@H]1OC(=O)[C@H](C)[C@@H](OC(=O)COCc2ccccc2)[C@H](C)[C@@H](O[C@@H]2O[C@H](C)C[C@H](N(C)C)[C@H]2O)[C@](C)(OC(=O)NC/C=C/c2ccc(-c3ncccn3)cc2)C[C@@H](C)C(=O)[C@H](C)[C@H]2NC(=O)O[C@@]21C [Compound 16] | > 16 | 1 (≈ 1.01 µM) | 0.06 (≈ 0.0608 µM) | 0.5 (≈ 0.507 µM) | 8 (≈ 8.11 µM) | – | – | – | – | –

Reference: US6825172B2, “3-descladinosyl-6-O-carbamoyl and 6-O-carbonoyl macrolide antibacterial agents” (Janssen Pharmaceutica, NV, priority 2002, dated 2004)
